Assays:
[1] = target: T1, Estrogen receptor (Mus musculus) (UniProt O08537+P19785); assay: Anti-uterotrophic effect in immature mice at 25 ug; format: functional
[2] = target: T1, Estrogen receptor (Mus musculus); assay: Anti-uterotrophic effect in mice at 1.0 ug; format: functional
[3] = target: T1, Estrogen receptor (Mus musculus); assay: Anti-uterotrophic effect in mice at 25 ug; format: functional
[4] = target: T1, Estrogen receptor (Mus musculus); assay: Anti-uterotrophic effect in mice at 5 ug; format: functional
[5] = target: T1, Estrogen receptor (Mus musculus); assay: Anti-uterotrophic effect in immature mice at 5 ug; format: functional
[6] = target: T1, Estrogen receptor (Mus musculus); assay: Anti-uterotrophic effect in immature mice at 1.0 ug; format: functional
[7] = target: Estrogen receptor (Bos taurus) (UniProt Q9XSB5+P49884); assay: Inhibition of [3H]estradiol binding to calf uterine estrogen receptor; format: protein assay
[8] = target: T1, Estrogen receptor (Mus musculus); assay: Anti-uterotrophic effect in immature mice at 100 ug; format: functional
[9] = target: T1, Estrogen receptor (Mus musculus); assay: Anti-uterotrophic effect in mice at 100 ug; format: functional

T1 sequence (O08537 whole entry, looked up): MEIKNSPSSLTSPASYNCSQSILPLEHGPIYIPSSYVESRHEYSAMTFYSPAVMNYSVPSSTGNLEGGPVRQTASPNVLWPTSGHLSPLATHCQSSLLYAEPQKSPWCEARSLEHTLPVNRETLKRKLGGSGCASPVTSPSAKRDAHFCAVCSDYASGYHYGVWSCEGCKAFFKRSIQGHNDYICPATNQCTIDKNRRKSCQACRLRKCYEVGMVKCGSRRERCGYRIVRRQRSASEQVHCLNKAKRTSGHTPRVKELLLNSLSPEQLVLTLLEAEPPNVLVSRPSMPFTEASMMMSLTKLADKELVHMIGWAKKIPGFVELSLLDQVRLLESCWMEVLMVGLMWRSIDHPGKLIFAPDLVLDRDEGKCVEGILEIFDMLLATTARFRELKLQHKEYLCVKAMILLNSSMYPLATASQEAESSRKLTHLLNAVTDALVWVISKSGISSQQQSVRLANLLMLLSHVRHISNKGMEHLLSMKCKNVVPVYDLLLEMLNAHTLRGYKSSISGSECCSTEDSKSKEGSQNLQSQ
T1 sequence (P19785 whole entry, looked up): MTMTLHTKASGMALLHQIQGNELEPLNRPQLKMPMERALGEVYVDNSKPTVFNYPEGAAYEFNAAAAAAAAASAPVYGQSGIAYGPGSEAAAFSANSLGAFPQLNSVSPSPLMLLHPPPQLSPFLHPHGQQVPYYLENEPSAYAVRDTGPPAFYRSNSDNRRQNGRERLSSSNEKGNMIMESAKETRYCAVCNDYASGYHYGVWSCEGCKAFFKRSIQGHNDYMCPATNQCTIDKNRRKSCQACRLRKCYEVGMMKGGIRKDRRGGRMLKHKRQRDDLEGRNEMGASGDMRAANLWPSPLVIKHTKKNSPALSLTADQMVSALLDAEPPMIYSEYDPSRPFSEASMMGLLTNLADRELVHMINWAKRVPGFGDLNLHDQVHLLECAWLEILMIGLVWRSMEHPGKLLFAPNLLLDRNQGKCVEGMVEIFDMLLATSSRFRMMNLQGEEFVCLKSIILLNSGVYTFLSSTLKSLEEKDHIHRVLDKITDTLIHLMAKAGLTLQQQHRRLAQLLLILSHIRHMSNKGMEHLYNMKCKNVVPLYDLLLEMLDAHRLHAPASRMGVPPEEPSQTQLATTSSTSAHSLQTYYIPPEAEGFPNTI

Row | SMILES | inhibition [1] [%] | Effect [2] [mg 100g-1] | Effect [3] [mg 100g-1] | Effect [4] [mg 100g-1] | inhibition [5] [%] | inhibition [6] [%] | RBA [7] [%] | inhibition [8] [%] | Effect [9] [mg 100g-1]
1 | CC(=O)c1cccc(C2=C(C(C)C)c3cc(C(C)=O)ccc3C2(C)C)c1 | 0 | 30.3 | 44.7 |  |  | 21 | 2 |  | 
2 | CC(=O)c1ccc(C2=C(C(C)C)c3cc(C(C)=O)c(C(C)=O)cc3C2(C)C)cc1C(C)=O | 11 | 29 | 32.5 |  |  | 28 | 1.7 |  | 

More lines, now with the values ahead:

Row | inhibition [1] [%] | Effect [2] [mg 100g-1] | Effect [3] [mg 100g-1] | Effect [4] [mg 100g-1] | inhibition [5] [%] | inhibition [6] [%] | RBA [7] [%] | inhibition [8] [%] | Effect [9] [mg 100g-1] | SMILES
3 | 9 | 30.1 | 40.2 | 34.8 | 30 | 48 | 1.8 |  |  | CCC1=C(c2cccc(C(C)=O)c2)C(C)c2ccc(C(C)=O)cc21 (configuration not stated)
4 |  |  |  |  |  |  | 2.2 |  |  | CC/C(=C(/CC)c1cccc(C(C)=O)c1)c1cccc(C(C)=O)c1
5 | 8 | 33.8 | 40.4 | 27.4 | 54 | 31 | 1 | 5 | 41.3 | CC/C(=C(/CC)c1ccc(C(C)=O)c(C(C)=O)c1)c1ccc(C(C)=O)c(C(C)=O)c1
